As a reminder, the pIC50 is −log10 of the IC50, conventionally taken in molar units.

The structures appear in SMILES notation. pIC50: −log10 of the molar value. A value given as a limit tells only on which side of the number the result lay.

Data on 3 molecules can be found in ChEMBL document CHEMBL1135561, “Development of a phosphatase-stable phosphotyrosyl mimetic suitably protected for the synthesis of high-affinity Grb2 SH2 domain-binding ligands” (Bioorg Med Chem Lett, 2002).

T1 sequence (P62993 whole entry, the tested form may be a part): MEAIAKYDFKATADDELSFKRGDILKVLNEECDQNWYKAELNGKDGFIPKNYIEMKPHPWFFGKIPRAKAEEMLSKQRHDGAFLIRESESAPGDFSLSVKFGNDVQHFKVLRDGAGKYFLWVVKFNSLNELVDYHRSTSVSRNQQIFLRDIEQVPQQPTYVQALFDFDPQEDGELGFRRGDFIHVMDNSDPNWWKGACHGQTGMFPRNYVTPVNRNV

One experiment addresses T1, Growth factor receptor-bound protein 2 (Homo sapiens, UniProt P62993). In words: Inhibition of Growth factor receptor bound protein 2 SH2 domain binding to p185erbB-2 receptor.
Conditions: not given
`[N-]=[N+]=N[C@@H](Cc1ccc(CP(=O)(O)O)cc1)C(=O)NC1(C(=O)N[C@@H](CC(N)=O)C(=O)NCCCc2cccc3ccccc23)CCCCC1`: the pIC50 was below 4.52.
For `NC(=O)C[C@H](NC(=O)C1(NC(=O)[C@H](Cc2ccc(CP(=O)(O)O)cc2)NC(=O)C(=O)O)CCCCC1)C(=O)NCCCc1cccc2ccccc12`, the pIC50 is 5.52.
Molecule `NC(=O)C[C@H](NC(=O)C1(NC(=O)[C@@H](CC(=O)O)Cc2ccc(CP(=O)(O)O)cc2)CCCCC1)C(=O)NCCCc1cccc2ccccc12` gave a pIC50 of 5.00. Against the preceding molecule, the pIC50 is 0.52 log units lower.

The next experiment concerns MDA-MB-453. Description: Inhibition of MDA-MB-453 cell proliferation. It counts as functional, cell-based. To be noted: Homo sapiens.
`[N-]=[N+]=N[C@@H](Cc1ccc(CP(=O)(O)O)cc1)C(=O)NC1(C(=O)N[C@@H](CC(N)=O)C(=O)NCCCc2cccc3ccccc23)CCCCC1` showed a pIC50 below 4.30.
The same measure, in the same setting: the same measure for `NC(=O)C[C@H](NC(=O)C1(NC(=O)[C@H](Cc2ccc(CP(=O)(O)O)cc2)NC(=O)C(=O)O)CCCCC1)C(=O)NCCCc1cccc2ccccc12`: 5.30.
As to `NC(=O)C[C@H](NC(=O)C1(NC(=O)[C@@H](CC(=O)O)Cc2ccc(CP(=O)(O)O)cc2)CCCCC1)C(=O)NCCCc1cccc2ccccc12`, the pIC50 was 5.10. This pIC50 lies 0.20 log units lower than the previous one.

The next experiment has as its target T1, Growth factor receptor-bound protein 2. Description: Binding affinity for Growth factor receptor bound protein 2 SH2 domain.
Conditions: not given
Molecule `[N-]=[N+]=N[C@@H](Cc1ccc(CP(=O)(O)O)cc1)C(=O)NC1(C(=O)N[C@@H](CC(N)=O)C(=O)NCCCc2cccc3ccccc23)CCCCC1` had a pIC50 of 5.30.
On the same count and under the same terms, under `NC(=O)C[C@H](NC(=O)C1(NC(=O)[C@H](Cc2ccc(CP(=O)(O)O)cc2)NC(=O)C(=O)O)CCCCC1)C(=O)NCCCc1cccc2ccccc12` stands 8.05.
Same read-out and setting: under `NC(=O)C[C@H](NC(=O)C1(NC(=O)[C@@H](CC(=O)O)Cc2ccc(CP(=O)(O)O)cc2)CCCCC1)C(=O)NCCCc1cccc2ccccc12` stands 8.10.
